# Laboratory results published in ChEMBL document CHEMBL1201862, “PubChem BioAssay data set” (2004).
# Calls of active or inactive are those of the source.
# Assays:
# [1] = target: DNA dC->dU-editing enzyme APOBEC-3A (Homo sapiens, UniProt P31941); assay: Dose Response confirmation of small molecule APOBEC3A DNA Deaminase Inhibitors via a fluorescence-based single-stranded DNA deaminase assay. [Related pubchem assays (depositor defined):AID493011, AID493024]; type: functional
# [2] = target: DNA dC->dU-editing enzyme APOBEC-3G (Homo sapiens, UniProt Q9HC16); type: functional;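 also: Dose-response counterscreen measuring inhibition of APOBEC3G DNA deaminase activity, run while confirming APOBEC3A inhibitors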
# DNA dC->dU-editing enzyme APOBEC-3G, sequence (Q9HC16 whole entry): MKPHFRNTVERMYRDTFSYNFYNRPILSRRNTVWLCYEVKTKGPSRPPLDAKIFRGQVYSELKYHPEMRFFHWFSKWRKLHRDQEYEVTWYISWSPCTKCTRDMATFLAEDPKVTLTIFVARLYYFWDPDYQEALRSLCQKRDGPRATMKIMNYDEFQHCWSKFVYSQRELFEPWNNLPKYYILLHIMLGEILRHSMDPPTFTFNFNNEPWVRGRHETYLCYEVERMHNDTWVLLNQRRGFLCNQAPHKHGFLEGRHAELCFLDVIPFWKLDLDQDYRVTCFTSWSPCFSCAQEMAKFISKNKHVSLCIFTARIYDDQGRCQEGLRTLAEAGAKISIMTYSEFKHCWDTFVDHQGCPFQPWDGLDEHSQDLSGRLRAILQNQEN
# [3] = THP-1 cell cytotoxicity, dose response, cytotoxicity control for Vif-APOBEC3G degradation inhibitor project, THP-1 cells (AID 1117359); type: functional; details: Human immunodeficiency virus 1, THP-1
# Cytochrome P450 2C9 = Cytochrome P450 2C9 (Homo sapiens, UniProt P11712)
# Cytochrome P450 2C9, sequence (P11712 whole entry): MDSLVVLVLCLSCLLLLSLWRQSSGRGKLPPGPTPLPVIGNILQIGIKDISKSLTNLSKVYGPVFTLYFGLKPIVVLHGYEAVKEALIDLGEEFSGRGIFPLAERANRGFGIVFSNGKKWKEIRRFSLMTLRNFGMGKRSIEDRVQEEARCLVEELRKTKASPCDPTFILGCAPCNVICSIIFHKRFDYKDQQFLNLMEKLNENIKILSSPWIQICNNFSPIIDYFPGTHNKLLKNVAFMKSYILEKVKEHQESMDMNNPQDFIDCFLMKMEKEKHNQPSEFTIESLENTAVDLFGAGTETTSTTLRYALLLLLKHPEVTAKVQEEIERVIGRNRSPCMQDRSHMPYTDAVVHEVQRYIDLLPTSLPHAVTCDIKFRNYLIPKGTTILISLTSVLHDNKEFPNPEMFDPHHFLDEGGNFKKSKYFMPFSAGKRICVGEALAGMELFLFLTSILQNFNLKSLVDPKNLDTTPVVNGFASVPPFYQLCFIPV
# [4] = P. falciparum late gametocyte killing, dose response, luminescence (AID 1117278); type: functional, cell-based;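 also: gametocytes exposed to compound for 24 hours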
# [5] = Jurkat T cell cytotoxicity, dose response, cytotoxicity control for P. falciparum gametocyte viability project, luminescence (AID 1117277); type: functional, cell-based;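 also: potency reflects loss of cellular ATP meaning fewer viable cells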
# [6] = target: T1, Apoptotic protease-activating factor 1 (Homo sapiens, UniProt O14727); type: functional
# T1 sequence (O14727 whole entry): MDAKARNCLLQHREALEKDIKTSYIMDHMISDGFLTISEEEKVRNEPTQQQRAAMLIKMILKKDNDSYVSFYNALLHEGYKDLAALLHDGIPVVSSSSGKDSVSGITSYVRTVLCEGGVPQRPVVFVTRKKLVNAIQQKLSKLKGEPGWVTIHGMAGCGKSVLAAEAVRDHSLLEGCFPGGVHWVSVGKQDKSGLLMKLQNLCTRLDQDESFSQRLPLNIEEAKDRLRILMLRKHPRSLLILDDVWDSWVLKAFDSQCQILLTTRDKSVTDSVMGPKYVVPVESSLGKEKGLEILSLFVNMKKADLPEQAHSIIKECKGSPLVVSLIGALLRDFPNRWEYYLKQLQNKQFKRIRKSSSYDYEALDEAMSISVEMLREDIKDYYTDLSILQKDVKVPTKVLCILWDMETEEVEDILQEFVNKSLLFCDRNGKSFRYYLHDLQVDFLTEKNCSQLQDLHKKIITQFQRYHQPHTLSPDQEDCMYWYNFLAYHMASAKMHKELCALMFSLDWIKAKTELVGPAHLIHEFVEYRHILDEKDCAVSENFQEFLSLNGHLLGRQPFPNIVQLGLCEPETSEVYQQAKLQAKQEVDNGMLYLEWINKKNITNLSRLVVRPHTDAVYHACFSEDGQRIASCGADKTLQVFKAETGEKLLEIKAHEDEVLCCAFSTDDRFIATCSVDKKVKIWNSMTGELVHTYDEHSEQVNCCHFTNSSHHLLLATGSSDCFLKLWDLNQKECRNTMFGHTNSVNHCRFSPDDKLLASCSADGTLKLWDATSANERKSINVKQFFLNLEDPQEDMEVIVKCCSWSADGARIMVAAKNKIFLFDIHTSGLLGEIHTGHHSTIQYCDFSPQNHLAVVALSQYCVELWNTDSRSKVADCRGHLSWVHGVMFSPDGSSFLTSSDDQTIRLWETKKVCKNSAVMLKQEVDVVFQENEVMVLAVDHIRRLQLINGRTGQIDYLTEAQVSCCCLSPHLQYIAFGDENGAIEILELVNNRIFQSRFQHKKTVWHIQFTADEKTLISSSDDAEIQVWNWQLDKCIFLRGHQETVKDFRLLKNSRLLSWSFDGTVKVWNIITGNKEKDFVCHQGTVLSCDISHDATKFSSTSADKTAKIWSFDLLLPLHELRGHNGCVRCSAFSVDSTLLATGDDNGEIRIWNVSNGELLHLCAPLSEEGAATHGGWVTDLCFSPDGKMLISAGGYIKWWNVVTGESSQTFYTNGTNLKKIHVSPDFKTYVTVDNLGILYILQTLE
# Protein RecA = target: T2, Protein RecA (Mycobacterium tuberculosis, UniProt P9WHJ3); assay: Fluorescence Cell-Free Homogeneous Dose Retest to Identify Inhibitors of RecA-Intein Splicing Activity. [Related pubchem assays (depositor defined):AID2097, AID2223, AID489010, AID492950]; type: functional
# T2 sequence (P9WHJ3 whole entry): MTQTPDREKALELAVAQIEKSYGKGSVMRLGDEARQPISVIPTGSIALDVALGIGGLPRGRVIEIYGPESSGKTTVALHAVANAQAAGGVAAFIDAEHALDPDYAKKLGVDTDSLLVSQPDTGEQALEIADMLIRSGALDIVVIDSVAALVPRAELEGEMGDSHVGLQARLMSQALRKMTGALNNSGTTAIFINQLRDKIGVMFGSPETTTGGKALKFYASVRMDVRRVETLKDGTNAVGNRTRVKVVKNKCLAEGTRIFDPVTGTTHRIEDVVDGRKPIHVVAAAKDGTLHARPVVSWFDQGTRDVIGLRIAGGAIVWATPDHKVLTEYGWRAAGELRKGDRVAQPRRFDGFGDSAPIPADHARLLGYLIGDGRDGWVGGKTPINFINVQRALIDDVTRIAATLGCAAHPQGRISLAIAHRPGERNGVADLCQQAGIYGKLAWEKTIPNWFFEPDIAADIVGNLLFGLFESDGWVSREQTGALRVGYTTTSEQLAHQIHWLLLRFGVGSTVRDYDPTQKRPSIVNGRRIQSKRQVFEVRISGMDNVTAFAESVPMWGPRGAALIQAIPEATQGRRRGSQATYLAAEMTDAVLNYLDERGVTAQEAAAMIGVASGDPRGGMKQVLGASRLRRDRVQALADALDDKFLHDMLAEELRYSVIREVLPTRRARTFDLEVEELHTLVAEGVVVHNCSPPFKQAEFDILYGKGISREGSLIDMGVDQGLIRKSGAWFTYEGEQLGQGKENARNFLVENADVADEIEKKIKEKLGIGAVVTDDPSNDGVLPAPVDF
# [7] = target: T3, Mannose-6-phosphate isomerase (Homo sapiens, UniProt P34949); assay: human PMI inhibitors, high substrate, primary screen, biochemical, fluorescence intensity, high mannose 6-phosphate (AID 1220)
# T3 sequence (P34949 whole entry): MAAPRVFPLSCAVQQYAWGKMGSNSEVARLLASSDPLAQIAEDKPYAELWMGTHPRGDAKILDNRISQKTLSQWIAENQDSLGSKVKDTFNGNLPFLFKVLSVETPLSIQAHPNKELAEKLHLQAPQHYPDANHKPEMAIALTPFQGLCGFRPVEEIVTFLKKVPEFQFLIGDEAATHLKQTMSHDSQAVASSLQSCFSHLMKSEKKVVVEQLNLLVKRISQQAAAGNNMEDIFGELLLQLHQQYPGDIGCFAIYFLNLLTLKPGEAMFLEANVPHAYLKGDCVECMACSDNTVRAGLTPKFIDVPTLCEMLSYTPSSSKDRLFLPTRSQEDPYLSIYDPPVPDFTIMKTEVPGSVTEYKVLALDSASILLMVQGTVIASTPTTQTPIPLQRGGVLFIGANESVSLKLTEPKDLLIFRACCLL
# [8] = target: Glucose-6-phosphate 1-dehydrogenase (Homo sapiens, UniProt P11413); assay: human G6PD enzyme inhibitors, dose response, selectivity assay for P. falciparum G6PD inhibitor project, biochemical, fluorescence (AID 504792); type: functional
# Glucose-6-phosphate 1-dehydrogenase, sequence (P11413 whole entry): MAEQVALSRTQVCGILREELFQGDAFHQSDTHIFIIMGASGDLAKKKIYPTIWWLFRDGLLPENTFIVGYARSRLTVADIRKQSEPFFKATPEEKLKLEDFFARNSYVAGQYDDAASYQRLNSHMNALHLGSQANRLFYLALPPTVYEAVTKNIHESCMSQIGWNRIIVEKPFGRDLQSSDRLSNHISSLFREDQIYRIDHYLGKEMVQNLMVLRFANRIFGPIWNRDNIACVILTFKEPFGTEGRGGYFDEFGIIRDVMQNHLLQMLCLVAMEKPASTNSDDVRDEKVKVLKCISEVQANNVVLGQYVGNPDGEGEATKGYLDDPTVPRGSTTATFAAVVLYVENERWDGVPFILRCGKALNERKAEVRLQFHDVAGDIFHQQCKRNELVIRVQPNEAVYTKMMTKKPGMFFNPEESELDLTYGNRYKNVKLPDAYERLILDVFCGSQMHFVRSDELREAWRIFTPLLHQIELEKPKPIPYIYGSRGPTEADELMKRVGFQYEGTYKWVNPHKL
# [9] = target: Luciferin 4-monooxygenase (Photinus pyralis, UniProt P08659); assay: Counter Screen for Luciferase-based Assay Positives. [Related pubchem assays: 620, 618, 411 ]
# Luciferin 4-monooxygenase, sequence (P08659 whole entry): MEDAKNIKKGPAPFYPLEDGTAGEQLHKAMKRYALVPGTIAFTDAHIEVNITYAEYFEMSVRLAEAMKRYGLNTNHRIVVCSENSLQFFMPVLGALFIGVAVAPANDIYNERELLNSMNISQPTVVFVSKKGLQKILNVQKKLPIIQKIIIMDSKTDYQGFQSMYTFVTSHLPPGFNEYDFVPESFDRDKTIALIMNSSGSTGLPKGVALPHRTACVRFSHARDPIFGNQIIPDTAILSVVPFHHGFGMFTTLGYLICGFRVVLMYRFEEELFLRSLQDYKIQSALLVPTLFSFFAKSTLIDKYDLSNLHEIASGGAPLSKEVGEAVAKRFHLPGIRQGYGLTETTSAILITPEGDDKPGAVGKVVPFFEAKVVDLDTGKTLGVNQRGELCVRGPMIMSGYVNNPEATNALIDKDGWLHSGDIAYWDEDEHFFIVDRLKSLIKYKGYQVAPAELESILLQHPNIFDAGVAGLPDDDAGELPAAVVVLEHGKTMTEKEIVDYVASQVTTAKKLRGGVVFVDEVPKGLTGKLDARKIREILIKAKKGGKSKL
# HT-1080 = assay: cytotoxicity in HT1080 fibrosarcoma cells, cell-based, fluorescence readout (AID 620); type: functional; details: Homo sapiens
# [10] = inhibitors of Vif binding to APOBEC3G peptide, primary screen, biochemical, TR-FRET, GST-Vif 1-94, biotin-A3G peptide, dose response retest (AID 1117319); type: functional;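 also: TR-FRET signal of purified GST-Vif binding a biotinylated A3G peptide; inhibitors lower the FRET signal by blocking Vif and A3G binding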
# DNA dC->dU-editing enzyme APOBEC-3A, sequence (P31941 whole entry): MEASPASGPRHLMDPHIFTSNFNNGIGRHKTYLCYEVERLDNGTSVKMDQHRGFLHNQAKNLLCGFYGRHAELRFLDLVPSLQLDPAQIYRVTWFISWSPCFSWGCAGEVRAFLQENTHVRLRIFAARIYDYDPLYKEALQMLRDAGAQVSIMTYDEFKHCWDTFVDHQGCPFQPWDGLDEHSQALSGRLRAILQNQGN
structure (smiles),measurement,setting,value
O=C(COc1ccccc1/C=C1/NC(=O)NC1=O)Nc1ccccc1,IC50,[1],3.71 µM (active)
same,IC50,[2],3.26 µM (active)
CCOC(=O)c1nc(O)c2c(C)c(C)sc2n1,CC50,[3],> 40 µM (active)
same,AC50,Cytochrome P450 2C9,20 µM (inconclusive)
CCC(C)Sc1nc2c(c(=O)[nH]c(=O)n2C)n1CC(O)COc1ccccc1C (stereo not given),IC50,[4],> 109 µM (inactive)
same,IC50,[5],> 83.3 µM (inactive)
CC(=O)OCCCn1c(C)[n+](C)c2cc(Cl)c(Cl)cc21,IC50,[1],2.27 µM (active)
same,IC50,[2],2.41 µM (active)
CCCCCn1c(N)c(C(=O)NCc2cccs2)c2nc3ccccc3nc21,IC50,[6],53.7 µM (active)
same,EC50,Protein RecA,1.24 µM (active)
same,IC50,[7],> 50 µM (not active)
CC1=CC(C)(C)[N+](C)(C)c2ccc(C)cc21,IC50,[1],2.06 µM (active)
same,IC50,[2],3.44 µM (active)
CCN(CC)CCCN1C(=O)CSC1c1ccc2c(c1)OCO2 (stereo not given),IC50,[4],> 109 µM (inactive)
same,IC50,[5],> 83.3 µM (inactive)
CCC(c1ccc(O)c(O)c1)C(CC)c1ccc(O)c(O)c1 (stereo not given),IC50,[8],> 80 µM (inactive)
same,CC50,[3],11.7 µM (active)
Cc1c(C(=O)NCC2CCCO2)oc2ccc3c(c12)C(=O)CC(C)(C)O3 (stereo not given),EC50,[9],0.54 µM (active)
same,EC50,HT-1080,> 50 µM (not active)
CCC(Sc1nc2cc(OC)c(OC)cc2c(=O)n1Cc1ccco1)C(=O)NCCOC (stereo not given),IC50,[10],> 100 µM (active)
